Experimental data: US7179806B2, “Δ1-pyrrolines used as pesticides” (Bayer Cropscience AG, priority 2000, dated 2007)

experiment: log P determination by HPLC (reversed-phase C18, EEC Directive 79/831 Annex V.A8); assay type: physicochemical; conditions: reversed-phase C18 HPLC column, pH 2.3, pH 2.3, 0.1% aqueous phosphoric acid/acetonitrile gradient, 43° C
From the text: Mobile phases for determination in the acidic range: 0.1% aqueous phosphoric acid, acetonitrile; linear gradient from 10% acetonitrile to 90% acetonitrile.

Structure (SMILES)	chromatographic logP
CCCCCCN(C(=O)C(C)(C)C)c1ccc(-c2ccc(C3CCC(c4c(F)cccc4F)=N3)cc2)nn1 (stereo not drawn) [Example 61]	4.35
CC(C)(C)C(=O)N(c1ccc(-c2ccc(C3CCC(c4c(F)cccc4F)=N3)cc2)nn1)C1CCCC1 (stereo not drawn) [Example 63]	3.22
CCCCCCC(=O)N(CCC)c1ccc(-c2ccc(C3CCC(c4c(F)cccc4F)=N3)cc2)nn1 (stereo not drawn) [Example 64]	3.89
CC(C)(C)C(=O)N(c1ccc(-c2ccc(C3CCC(c4c(F)cccc4F)=N3)cc2)nn1)C1CCCCC1 (stereo not drawn) [Example 65]	3.56
CCOC(=O)N1CCN(c2ccc(-c3ccc(C4CCC(c5c(F)cccc5F)=N4)cc3)nn2)CC1 (stereo not drawn) [Example 70]	1.63
Fc1cccc(F)c1C1=NC(c2ccc(-c3ccc(OCCCC(F)(F)C(F)(F)F)nn3)cc2)CC1 (stereo not drawn) [Example 73]	3.58
Fc1cccc(F)c1C1=NC(c2ccc(-c3cnc(Cc4ccccc4)nc3)cc2)CC1 (stereo not drawn) [Example 91]	2.79
Fc1cccc(F)c1C1=NC(c2ccc(-c3cnc(SCSC(F)(F)F)nc3)cc2)CC1 (stereo not drawn) [Example 92]	4
FC(F)Sc1ncc(-c2ccc(C3CCC(c4ccccc4Cl)=N3)cc2)cn1 (stereo not drawn) [Example 93]	3.38
Fc1cccc(F)c1C1=N[C@@H](c2ccc(-c3ccc(C(F)(F)F)cn3)cc2)CC1 [Example 94]	3.28
Fc1cccc(F)c1C1=NC(c2ccc(-c3cnc(OC(C(F)(F)F)C(F)(F)F)nc3)cc2)CC1 (stereo not drawn) [Example 95]	3.85
CN1CCN(c2ccc(-c3ccc(C4CCC(c5c(F)cccc5F)=N4)cc3)cn2)CC1 (stereo not drawn) [Example 96]	1.04
CC1CC(C)CN(c2ccc(-c3ccc(C4CCC(c5c(F)cccc5F)=N4)cc3)cn2)C1 (stereo not drawn) [Example 97]	2.1
CCCCCCN(C)c1ncc(-c2ccc(C3CCC(c4c(F)cccc4F)=N3)cc2)cn1 (stereo not drawn) [Example 99]	4.94
CCCOc1ncc(-c2ccc(C3CCC(c4c(F)cccc4F)=N3)cc2)cn1 (stereo not drawn) [Example 100]	2.72
CCN1CCN(c2ncc(-c3ccc(C4CCC(c5c(F)cccc5F)=N4)cc3)cn2)CC1 (stereo not drawn) [Example 101]	1.24

Second part, the compound after the results:

chromatographic logP	Structure (SMILES)
2.95	CCCN(C(=O)C(C)(C)C)c1ccc(-c2ccc(C3CCC(c4c(F)cccc4F)=N3)cc2)nn1 (stereo not drawn) [Example 62]
2.53	CC(C)(C)C(=O)N(c1ccc(-c2ccc(C3CCC(c4c(F)cccc4F)=N3)cc2)nn1)C1CC1 (stereo not drawn) [Example 66]
1.48	CC(=O)N(C)c1ccc(-c2ccc(C3CCC(c4c(F)cccc4F)=N3)cc2)nn1 (stereo not drawn) [Example 67]
3.24	CCCCCC(=O)N(C)c1ccc(-c2ccc(C3CCC(c4c(F)cccc4F)=N3)cc2)nn1 (stereo not drawn) [Example 68]
3.7	Fc1cccc(F)c1C1=NC(c2ccc(-c3ccc(OC(C(F)(F)F)C(F)(F)F)nn3)cc2)CC1 (stereo not drawn) [Example 69]
2.95	FC(F)=C(F)CCOc1ccc(-c2ccc(C3CCC(c4c(F)cccc4F)=N3)cc2)nn1 (stereo not drawn) [Example 74]
1.23	CCN(C)c1ccc(-c2ccc(C3CCC(c4c(F)cccc4F)=N3)cc2)nn1 (stereo not drawn) [Example 75]
1.82	CCCCN(CC)c1ccc(-c2ccc(C3CCC(c4c(F)cccc4F)=N3)cc2)nn1 (stereo not drawn) [Example 77]
1.86	CCCN(CCC)c1ccc(-c2ccc(C3CCC(c4c(F)cccc4F)=N3)cc2)nn1 (stereo not drawn) [Example 78]
1.08	CN(C)c1ccc(-c2ccc(C3CCC(c4c(F)cccc4F)=N3)cc2)nn1 (stereo not drawn) [Example 79]
1.39	CCN(CC)c1ccc(-c2ccc(C3CCC(c4c(F)cccc4F)=N3)cc2)nn1 (stereo not drawn) [Example 80]
1.28	Fc1cccc(F)c1C1=NC(c2ccc(-c3ccc(N4CCCC4)nn3)cc2)CC1 (stereo not drawn) [Example 81]
1.4	CC(C)S(=O)(=O)c1ccc(-c2ccc(C3CCC(c4c(F)cccc4F)=N3)cc2)nn1 (stereo not drawn) [Example 82]
1.77	CC(=O)OCCCN(Cc1ccc(-c2ccc(C3CCC(c4c(F)cccc4F)=N3)cc2)nn1)C(C)=O (stereo not drawn) [Example 89]
